Assay results taken from patent publication US8017809B2, “Bisboron compound” (Japan Science and Technology Agency, priority 2005, dated 2011).
Where two headings read alike, the source gives them in different places.

Test system: capacitative calcium entry (CCE) in IP3 receptor-deficient strain of cell line DT40
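Further: intracellular Ca2+ read as 340/380 nm excitation ratio at 510 nm emission, stores emptied by thapsigargin without external Ca2+, then 2 mM CaCl2 added, inhibition of the ensuing Ca2+ rise.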

Procedure: (Assay of Capacitative Calcium Entry Inhibition)
Its 510 nm fluorescence obtained at 340 nm and 380 nm is measured and the fluorescence ratio F340/380 is measured to determine the intracellular calcium ion concentration. Next, thapsigargin (an endoplasmic reticulum calcium ion pump inhibitor) is allowed to act without calcium ion in an extracellular fluid to deplete an intracellular calcium store. Calcium chloride at a final concentration of 2 mM is added to the extracellular fluid. The IC50 value is calculated by estimating the effect of each compound on the degree of increase in the intracellular calcium concentration at the time of the addition.

Row | Compound | inhibition (1 µM) [%] | inhibition (3 µM) [%] | also measured
1 | CCCCNCCB(c1ccccc1)c1cccc(COCc2cccc(B(CCNCCCC)c3ccccc3)c2)c1 [Example 155, Bis(3,3′-(phenyl-N-butylaminoethylboryl)benzyl) ether] | 95 | 100 | –
2 | NCC(OB(c1ccccc1)c1cccc(COCc2cccc(B(OC(CN)c3ccccc3)c3ccccc3)c2)c1)c1ccccc1 (centres unmarked) [Example 150, Bis(3,3′-(phenyl-2-amino-1-phenylethoxyboryl)benzyl) ether] | 50 | 100 | –
3 | NCCOB(c1ccccc1)c1ccc(COCc2cccc(B(OCCN)c3ccccc3)c2)cc1 [Example 13, (3-(Phenylaminoethoxyboryl)benzyl) (4-(phenylaminoethoxyboryl)benzyl) ether] | – | – | inhibition (0.1 µM): 10%; inhibition (0.2 µM): 80%; inhibition (0.3 µM): 100%
4 | NCCOB(c1ccc(COCc2ccc(B(OCCN)c3ccc(C(F)(F)F)cc3)cc2)cc1)c1ccc(C(F)(F)F)cc1 [Example 108, Bis(4,4′-(p-trifluoromethylphenyl-aminoethoxyboryl)benzyl) ether] | 20 | 100 | –
5 | NCCOB(c1ccccc1)c1ccccc1 [(2-aminoethoxy)diphenylborane, reference compound] | – | – | IC50: 5 µM
6 | CN(C)CCOB(c1ccccc1)c1cccc(COCc2cccc(B(OCCN(C)C)c3ccccc3)c2)c1 [Example 85, Bis(3,3′-(phenyl-N,N-dimethylaminoethoxyboryl)benzyl) ether] | 10 | 90 | –
7 | CNCCOB(c1ccccc1)c1cccc(COCc2cccc(B(OCCNC)c3ccccc3)c2)c1 [Example 151, Bis(3,3′-(phenyl-N-methylethoxyboryl)benzyl) ether] | 60 | 100 | –
8 | CC(CCNCCN)OB(c1ccccc1)c1cccc(COCc2cccc(B(OC(C)CCNCCN)c3ccccc3)c2)c1 (centres unmarked) [Example 152, Bis(3,3′-(phenyl-N-aminoethyl-1-methyl-3-aminopropoxyboryl)benzyl) ether] | 40 | 80 | –
9 | COc1ccc(B(OCCN)c2ccc(COCc3ccc(B(OCCN)c4ccc(OC)cc4)cc3)cc2)cc1 [Example 94, Bis(4,4′-(p-methoxyphenyl-aminoethoxyboryl)benzyl) ether] | 0 | 100 | –
10 | Cc1ccc(B(OCCN)c2ccc(COCc3ccc(B(OCCN)c4ccc(C)c(Cl)c4)cc3)cc2)cc1Cl [Example 102, Bis(4,4′-(3-chloro-4-methylphenyl-aminoethoxyboryl)benzyl) ether] | 30 | 100 | –
11 | Bis(4,4′-(phenyl-N-methylpiperidine-methoxyboryl)benzyl) ether [Example 139] | 40 | 100 | –
12 | NCCOB(c1ccc(COCCOc2ccc(B(OCCN)c3cccs3)cc2)cc1)c1cccs1 [Example 53, (4-(2-Thiopheneaminoethoxyboryl)phenoxyethyl) (4′-(2-thiopheneaminoethoxyboryl)benzyl) ether] | 10 | – | –
